Where two headings read alike, the source gives them in different places.
Columns and labels:
[1] = test system: Vascular smooth muscle cells (BO54); assay: Scratch-migration assay; assay type: cell-based, baboon; conditions: 0.1 µg/ml
Procedure: Scratch assays to determine the extent of smooth muscle cell migration inhibition by cytochalasin B were performed in accordance with the following protocol: Vascular smooth muscle cells (BO54) were derived from explants of baboon aortic smooth muscle, as described in Example 2. The cells were grown in flat bottom, six well tissue culture plates, which hold about 5 ml of medium. The vascular smooth muscle cells were plated at 200,000 cells/well and placed at 37°C in a humidified 5% CO2 incubator for 18 hours. The wells were then scratched with a sterile portion of a single edge razor blade that was held by clamp or pliers and was brought aseptically into contact with the bottom of the well at a 90° angle.The cells from a small area along the scratch were removed by a sterile cotton tipped applicator while the blade was in contact with the bottom of the well.
After incubation, the presence of cells in the "scratched" area is indicative of cell migration across the scratch line.
Briefly, a stock solution of cytochalasin B (Sigma Chemical Co.) in dimethyl sulfoxide (DMSO) at 1 mg/ml was prepared. Test dilutions of cytochalasin B or control medium were added. […]
The migration results are expressed as "Grade in the Cleared Area of the Well / Grade in an Undisturbed Region of the Well." The toxicity values represent a grade for all cells in each well.

[2] = test system: vascular smooth muscle cells; assay type: in vivo, pig
[3] = test system: pig femoral arteries; conditions: in vivo
[4] = test system: Vascular smooth muscle cells; assay: In vitro recovery of migration after clearance of the agent; assay type: cell-based; conditions: cells regenerate enough polymerized actin
[5] = test system: Vascular smooth muscle cells
[6] = test system: Vascular smooth muscle (BO54) cells; assay type: cell-based, baboon
[7] = test system: Vascular smooth muscle (BO54) cells; assay type: cell-based, baboon; remark: listed apart in the source

Compound | migration grade following removal of the therapeutic agent ([1]; even after 10 days of continuous exposure) | migration grade into the cleared area adjacent to the scratch ([1]; exposure) | BRDU labeling grade ([2]; 24 hours following balloon trauma, pretrauma baseline grade 1) | effect on luminal area in dose response study [3] | incidence of mural microthrombi [3] | lumen area in the test region compared to the normal control segment of the same artery [3] | luminal area compared to arteries treated with other test agents or controls [3] | time to resume migration after cells clear the agent [4] | Morphological cytotoxicity grade ([5]; 0.01ug, Continuous 24 hrs (first listing, 24 hr pulse series)) | Morphological cytotoxicity grade ([5]; 0.01ug, continuous 24 hrs (second listing, long term continuous series)) | Morphological cytotoxicity grade ([5]; 0.1 ug, Continuous 24 hrs (first listing, 24 hr pulse series)) | Morphological cytotoxicity grade ([5]; 0.1 ug, continuous 24 hrs (second listing, long term continuous series)) | cytotoxicity grade ([5]; 1 µg/ml, anti-migration/contraction effective dose, 1 = minimal) | Morphological cytotoxicity grade ([5]; 1 ug, Continuous 24 hrs (first listing, 24 hr pulse series)) | Morphological cytotoxicity grade ([5]; 1 ug, continuous 24 hrs (second listing, long term continuous series)) | minimum effective dose (MED) [6] | minimum effective dose (MED) [7] | BRDU labeling grade ([2]; pig, in vivo)
cytochalasin B | +3 to +4 | +1 to +2 | 1 (1 = ≤ 1/high power field(HPF)) | significant threshold effect | decreased | approximately two times as large | larger luminal area | ≤ 24 h | 0 | 0 | 1 | 0 | 1 | 3 | 3 | – | – | –
CN[C@@H]1C[C@H]2O[C@@](C)([C@@H]1OC)n1c3ccccc3c3c4c(c5c6ccccc6n2c5c31)C(=O)NC4 [staurosporin] | – | – | – | – | – | – | – | – | – | – | – | – | – | – | – | 1 ng/mL | 1 ng/mL | 1 (key: 1 = ≤ 1/high power field(HPF); 2 = 2 to 5/HPF; 3 = > 5 to ≤ 10/HPF; 4 = > 10/HPF)
